Assay results: publication PMC5218480 (PLoS ONE, 2017)

System: MV-4-11 cells
Test: Gene expression microarray analysis (Affymetrix PrimeView) and GSEA
Assay type: cell-based, human
Design: RFU PODN (11730768_x_at) / Fold change /veh PODN (11730768_x_at) / RFU LINC00158 (11744669_a_at) / Fold change /veh LINC00158 (11744669_a_at) / RFU DUSP10 (11751237_a_at) / Fold change /veh DUSP10 (11751237_a_at) / RFU ID3 (11757404_x_at) / Fold change /veh ID3 (11757404_x_at) / RFU PLEKHG5 (11737974_s_at) / Fold change /veh PLEKHG5 (11737974_s_at) / RFU LRRC4B (11730491_at) / Fold change /veh LRRC4B (11730491_at) / RFU GIMAP4 (11747438_a_at) / Fold change /veh GIMAP4 (11747438_a_at) / RFU KRT8 (11758183_x_at) / Fold change /veh KRT8 (11758183_x_at) / RFU CNN1 (11734310_a_at) / Fold change /veh CNN1 (11734310_a_at) / RFU VPS37D (11726825_at) / Fold change /veh VPS37D (11726825_at) / RFU C10orf10 (11716522_x_at) / Fold change /veh C10orf10 (11716522_x_at) / RFU KIR2DL2 /// KIR2DL4 /// KIR2DL5A /// KIR2DL5B /// KIR2DS1 /// KIR2DS2 /// KIR2DS3 /// KIR2DS4 /// KIR3DL3 /// KIR3DL3 /// KIR3DS1 (11738374_at) / Fold change /veh KIR2DL2 /// KIR2DL4 /// KIR2DL5A /// KIR2DL5B /// KIR2DS1 /// KIR2DS2 /// KIR2DS3 /// KIR2DS4 /// KIR3DL3 /// KIR3DL3 /// KIR3DS1 (11738374_at) / RFU C1QL1 (11718748_at) / Fold change /veh C1QL1 (11718748_at) / RFU TMPRSS4 (11747572_a_at) / Fold change /veh TMPRSS4 (11747572_a_at) / RFU HAMP (11756126_x_at) / Fold change /veh HAMP (11756126_x_at) / RFU RNFT2 (11725882_a_at) / Fold change /veh RNFT2 (11725882_a_at) / RFU NR4A2 (11747474_a_at) / Fold change /veh NR4A2 (11747474_a_at) / RFU ABCC12 (11746883_a_at) / Fold change /veh ABCC12 (11746883_a_at) / RFU TMEM136 (11760407_x_at) / Fold change /veh TMEM136 (11760407_x_at) / RFU CLDN22 /// WWC2 (11732394_at) / Fold change /veh CLDN22 /// WWC2 (11732394_at) / RFU HLA-DPB1 (11760878_x_at) / Fold change /veh HLA-DPB1 (11760878_x_at) / RFU SPINT1 (11716480_a_at) / Fold change /veh SPINT1 (11716480_a_at) / RFU GAP43 (11754022_s_at) / Fold change /veh GAP43 (11754022_s_at) / RFU A4GNT (11735810_at) / Fold change /veh A4GNT (11735810_at) / RFU PRB3 (11715151_x_at) / Fold change /veh PRB3 (11715151_x_at) / RFU TUBB4B (11761932_at) / Fold change /veh TUBB4B (11761932_at) / RFU CAPN14 (11732068_a_at) / Fold change /veh CAPN14 (11732068_a_at) / RFU TMCC2 (11721928_a_at) / Fold change /veh TMCC2 (11721928_a_at) / RFU IRGQ (11745062_a_at) / Fold change /veh IRGQ (11745062_a_at) / RFU FAM174B (11720279_a_at) / Fold change /veh FAM174B (11720279_a_at) / RFU TMPRSS4 (11748680_a_at) / Fold change /veh TMPRSS4 (11748680_a_at) / RFU FAM212B (11763350_a_at) / Fold change /veh FAM212B (11763350_a_at) / RFU PLEKHG5 (11743358_a_at) / Fold change /veh PLEKHG5 (11743358_a_at) / RFU ZSCAN30 (11745921_a_at) / Fold change /veh ZSCAN30 (11745921_a_at) / RFU CMKLR1 (11741424_a_at) / Fold change /veh CMKLR1 (11741424_a_at) / RFU LOC101060620 /// MAPK8IP1 (11723275_at) / Fold change /veh LOC101060620 /// MAPK8IP1 (11723275_at) / RFU SPTSSB (11747773_x_at) / Fold change /veh SPTSSB (11747773_x_at) / RFU PRSS12 (11739890_at) / Fold change /veh PRSS12 (11739890_at) / RFU BIN1 (11741810_x_at) / Fold change /veh BIN1 (11741810_x_at) / RFU WNT11 (11732464_a_at) / Fold change /veh WNT11 (11732464_a_at) / RFU C10orf10 (11716521_a_at) / Fold change /veh C10orf10 (11716521_a_at) / RFU C5orf56 (11738089_at) / Fold change /veh C5orf56 (11738089_at) / RFU CYB561 (11721691_x_at) / Fold change /veh CYB561 (11721691_x_at) / RFU ANKRD19P (11752326_a_at) / Fold change /veh ANKRD19P (11752326_a_at) / RFU OR2T12 /// OR2T33 /// OR2T8 (11738714_s_at) / Fold change /veh OR2T12 /// OR2T33 /// OR2T8 (11738714_s_at) / RFU VCAN (11748164_a_at) / Fold change /veh VCAN (11748164_a_at) / RFU JSRP1 (11732532_at) / Fold change /veh JSRP1 (11732532_at) / RFU KRTAP10-11 (11738290_x_at) / Fold change /veh KRTAP10-11 (11738290_x_at) / RFU MYO3A (11730013_a_at) / Fold change /veh MYO3A (11730013_a_at) / RFU EBF3 (11725865_a_at) / Fold change /veh EBF3 (11725865_a_at) / RFU CAMK2N1 (11719241_x_at) / Fold change /veh CAMK2N1 (11719241_x_at) / RFU C5orf56 (11738088_a_at) / Fold change /veh C5orf56 (11738088_a_at) / RFU OLFML3 (11715873_a_at) / Fold change /veh OLFML3 (11715873_a_at) / RFU LOC100653217 /// NTM (11731650_a_at) / Fold change /veh LOC100653217 /// NTM (11731650_a_at) / RFU MAPK11 (11762145_a_at) / Fold change /veh MAPK11 (11762145_a_at) / RFU FIZ1 (11724087_x_at) / Fold change /veh FIZ1 (11724087_x_at) / RFU OASL (11726364_x_at) / Fold change /veh OASL (11726364_x_at) / RFU SOX15 (11748057_x_at) / Fold change /veh SOX15 (11748057_x_at) / RFU CD79A (11719716_a_at) / Fold change /veh CD79A (11719716_a_at) / RFU HIST1H1D (11736915_at) / Fold change /veh HIST1H1D (11736915_at) / RFU CASKIN2 (11723855_a_at) / Fold change /veh CASKIN2 (11723855_a_at) / RFU LOC730098 (11760151_x_at) / Fold change /veh LOC730098 (11760151_x_at) / RFU OR4N2 (11742367_at) / Fold change /veh OR4N2 (11742367_at) / RFU PRRT2 (11749266_a_at) / Fold change /veh PRRT2 (11749266_a_at) / RFU SNX32 (11753110_a_at) / Fold change /veh SNX32 (11753110_a_at) / RFU CDHR5 (11726645_a_at) / Fold change /veh CDHR5 (11726645_a_at) / RFU RCAN1 (11760418_a_at) / Fold change /veh RCAN1 (11760418_a_at) / RFU FAM167A (11723789_a_at) / Fold change /veh FAM167A (11723789_a_at) / RFU FAM26E (11764081_at) / Fold change /veh FAM26E (11764081_at) / RFU ISYNA1 (11749810_s_at) / Fold change /veh ISYNA1 (11749810_s_at) / RFU ACY1 (11761880_at) / Fold change /veh ACY1 (11761880_at) / RFU 11764098_at / Fold change /veh 11764098_at / RFU SAMD14 (11745864_x_at) / Fold change /veh SAMD14 (11745864_x_at) / RFU NPB (11741838_a_at) / Fold change /veh NPB (11741838_a_at) / RFU TMPRSS6 (11731388_a_at) / Fold change /veh TMPRSS6 (11731388_a_at) / RFU KRTAP10-2 (11738614_at) / Fold change /veh KRTAP10-2 (11738614_at) / RFU ARHGAP8 /// PRR5-ARHGAP8 (11727945_x_at) / Fold change /veh ARHGAP8 /// PRR5-ARHGAP8 (11727945_x_at) / RFU KRTAP5-7 /// NADSYN1 (11734609_at) / Fold change /veh KRTAP5-7 /// NADSYN1 (11734609_at) / RFU RASL12 (11751679_a_at) / Fold change /veh RASL12 (11751679_a_at) / RFU CDKN2B (11736163_a_at) / Fold change /veh CDKN2B (11736163_a_at) / RFU PRF1 (11729649_at) / Fold change /veh PRF1 (11729649_at) / RFU, ZNF638 /// ZNF638-IT1 / Fold change vs veh, ZNF638 /// ZNF638-IT1 / RFU, PANK3 / Fold change vs veh, PANK3 / RFU, SH3YL1 / Fold change vs veh, SH3YL1 / RFU, ZEB2 / Fold change vs veh, ZEB2 / RFU, NRIP1 / Fold change vs veh, NRIP1 / RFU, PTTG1IP / Fold change vs veh, PTTG1IP / RFU, CAPN2 / Fold change vs veh, CAPN2 / RFU, MED14 / Fold change vs veh, MED14 / RFU, SNORA58 / Fold change vs veh, SNORA58 / RFU, C1orf63 / Fold change vs veh, C1orf63 / RFU, LRRFIP1 / Fold change vs veh, LRRFIP1 / RFU, NDUFAF7 / Fold change vs veh, NDUFAF7 / RFU, SLC12A2 / Fold change vs veh, SLC12A2 / RFU, IBTK / Fold change vs veh, IBTK / RFU, ESF1 / Fold change vs veh, ESF1 / Fold change vs veh, TMEM50B / RFU, TAOK1 / Fold change vs veh, TAOK1 / RFU, ACBD3 / Fold change vs veh, ACBD3 / RFU, TMA16 / Fold change vs veh, TMA16 / RFU, RWDD3 / Fold change vs veh, RWDD3 / RFU, BCAT1 / Fold change vs veh, BCAT1 / RFU, EDEM3 / Fold change vs veh, EDEM3 / RFU, TMEM33 / Fold change vs veh, TMEM33 / RFU, WDR75 / Fold change vs veh, WDR75 / RFU, AHCTF1 / Fold change vs veh, AHCTF1 / RFU, TFRC / Fold change vs veh, TFRC / RFU, ZDHHC17 / Fold change vs veh, ZDHHC17 / RFU, NOM1 / Fold change vs veh, NOM1 / RFU, ARL8B / Fold change vs veh, ARL8B / RFU, ZBTB11 / Fold change vs veh, ZBTB11 / RFU, TAMM41 / Fold change vs veh, TAMM41 / RFU, KIAA1704 /// LOC100996395 / Fold change vs veh, KIAA1704 /// LOC100996395 / RFU, ING1 / Fold change vs veh, ING1 / RFU, TRMT61B / Fold change vs veh, TRMT61B / RFU, FUBP3 / Fold change vs veh, FUBP3 / RFU, TP53 / Fold change vs veh, TP53 / RFU, TNKS2 / Fold change vs veh, TNKS2 / RFU, ZFP14 / Fold change vs veh, ZFP14 / RFU, ACTR2 / Fold change vs veh, ACTR2 / RFU, PPP3R1 / Fold change vs veh, PPP3R1 / RFU, PIK3R1 / Fold change vs veh, PIK3R1 / RFU, HNRNPA1 / Fold change vs veh, HNRNPA1 / RFU, RNF170 / Fold change vs veh, RNF170 / RFU, ZNF28 / Fold change vs veh, ZNF28 / RFU, RNGTT / Fold change vs veh, RNGTT / RFU, OGT / Fold change vs veh, OGT / RFU, BRD1 / Fold change vs veh, BRD1 / RFU, MARS / Fold change vs veh, MARS / RFU, ZNF655 / Fold change vs veh, ZNF655 / RFU, FAHD1 / Fold change vs veh, FAHD1 / RFU, BDP1 / Fold change vs veh, BDP1 / RFU, LRRCC1 / Fold change vs veh, LRRCC1 / RFU, ARID1A / Fold change vs veh, ARID1A / RFU, ZNF146 / Fold change vs veh, ZNF146 / RFU, ZNF330 / Fold change vs veh, ZNF330 / RFU, GPN3 / Fold change vs veh, GPN3 / RFU, C9orf123 / Fold change vs veh, C9orf123 / RFU, N4BP2L2 / Fold change vs veh, N4BP2L2 / RFU, ARFIP1 / Fold change vs veh, ARFIP1 / RFU, FAM179B / Fold change vs veh, FAM179B / RFU, BCL10 / Fold change vs veh, BCL10 / RFU, UHRF1BP1L / Fold change vs veh, UHRF1BP1L / RFU, BET1 / Fold change vs veh, BET1 / RFU, CNOT2 / Fold change vs veh, CNOT2 / RFU, ZNF268 / Fold change vs veh, ZNF268 / Fold change vs veh, ZNF507 / RFU, DGCR2 / Fold change vs veh, DGCR2 / RFU, WDSUB1 / Fold change vs veh, WDSUB1 / Fold change vs veh, HSP90B1 /// MIR3652 / RFU, ADSS / Fold change vs veh, ADSS / RFU, GK / Fold change vs veh, GK / RFU, ZNF148 / Fold change vs veh, ZNF148 / RFU, TAF9 / Fold change vs veh, TAF9 / RFU, SLC1A5 / Fold change vs veh, SLC1A5 / RFU, SLMO2 / Fold change vs veh, SLMO2 / RFU, ABCC4 / Fold change vs veh, ABCC4 / RFU, LOC101060439 /// RAP1B / Fold change vs veh, LOC101060439 /// RAP1B / RFU, RFX7 / Fold change vs veh, RFX7 / RFU, GTPBP10 / Fold change vs veh, GTPBP10 / RFU, CNEP1R1 / Fold change vs veh, CNEP1R1 / RFU, BIVM-ERCC5 /// ERCC5 / Fold change vs veh, BIVM-ERCC5 /// ERCC5 / RFU, ILF3 / Fold change vs veh, ILF3 / RFU 11762660_at / Fold change /veh 11762660_at / RFU VCAN (11757783_s_at) / Fold change /veh VCAN (11757783_s_at) / RFU DDX43 (11728927_at) / Fold change /veh DDX43 (11728927_at) / RFU KRT8 (11758188_x_at) / Fold change /veh KRT8 (11758188_x_at) / RFU NKD1 (11759106_at) / Fold change /veh NKD1 (11759106_at) / RFU SRD5A1 (11742802_a_at) / Fold change /veh SRD5A1 (11742802_a_at) / RFU TPSAB1 /// TPSB2 (11721975_s_at) / Fold change /veh TPSAB1 /// TPSB2 (11721975_s_at) / RFU GSTM3 (11746129_a_at) / Fold change /veh GSTM3 (11746129_a_at) / RFU IL23R (11737362_x_at) / Fold change /veh IL23R (11737362_x_at) / RFU TMEM51 (11727254_a_at) / Fold change /veh TMEM51 (11727254_a_at) / RFU PIWIL2 (11732686_x_at) / Fold change /veh PIWIL2 (11732686_x_at) / RFU ORM1 (11744905_x_at) / Fold change /veh ORM1 (11744905_x_at) / RFU CCDC152 (11743942_at) / Fold change /veh CCDC152 (11743942_at) / RFU ECM1 (11717891_a_at) / Fold change /veh ECM1 (11717891_a_at) / RFU IL23R (11748794_a_at) / Fold change /veh IL23R (11748794_a_at) / RFU TNFAIP8L3 (11732012_x_at) / Fold change /veh TNFAIP8L3 (11732012_x_at) / RFU MBOAT4 (11741988_at) / Fold change /veh MBOAT4 (11741988_at) / RFU 11764193_at / Fold change /veh 11764193_at / RFU TMEM53 (11763286_at) / Fold change /veh TMEM53 (11763286_at) / RFU MAGEB2 (11727129_at) / Fold change /veh MAGEB2 (11727129_at) / RFU TMEM200A (11744735_a_at) / Fold change /veh TMEM200A (11744735_a_at) / RFU CCDC152 (11751479_a_at) / Fold change /veh CCDC152 (11751479_a_at) / RFU FAM211A (11726209_a_at) / Fold change /veh FAM211A (11726209_a_at) / RFU RGS16 (11746705_a_at) / Fold change /veh RGS16 (11746705_a_at) / RFU VCAN (11755009_s_at) / Fold change /veh VCAN (11755009_s_at) / RFU RHOB (11743442_s_at) / Fold change /veh RHOB (11743442_s_at) / RFU RGS16 (11720943_a_at) / Fold change /veh RGS16 (11720943_a_at) / RFU RGS16 (11720944_at) / Fold change /veh RGS16 (11720944_at) / RFU, VPS4B / Fold change vs veh, VPS4B / RFU, CREB1 / Fold change vs veh, CREB1 / RFU, DNAJC13 / Fold change vs veh, DNAJC13 / RFU, GNAQ / Fold change vs veh, GNAQ / RFU, CDK5R1 / Fold change vs veh, CDK5R1 / RFU, ZRANB3 / Fold change vs veh, ZRANB3 / RFU, CUL4A / Fold change vs veh, CUL4A / RFU, CCNY / Fold change vs veh, CCNY / RFU, UFL1 / Fold change vs veh, UFL1 / RFU, COG3 / Fold change vs veh, COG3 / RFU, DIAPH2 / Fold change vs veh, DIAPH2 / RFU, SKA2 / Fold change vs veh, SKA2 / RFU, AFF3 / Fold change vs veh, AFF3 / RFU, LMF1 / Fold change vs veh, LMF1 / RFU, IPO11 / Fold change vs veh, IPO11 / RFU, DFFB / Fold change vs veh, DFFB / RFU, FOXP1 / Fold change vs veh, FOXP1 / RFU, CARD8 / Fold change vs veh, CARD8 / RFU, STRN3 / Fold change vs veh, STRN3 / RFU, ADK / Fold change vs veh, ADK / RFU, RASSF2 / Fold change vs veh, RASSF2 / RFU, WIPF1 / Fold change vs veh, WIPF1 / RFU, LARP1B / Fold change vs veh, LARP1B / RFU, RASA1 / Fold change vs veh, RASA1 / RFU, RB1 / Fold change vs veh, RB1 / RFU, PPFIA1 / Fold change vs veh, PPFIA1 / RFU, MAT2A / Fold change vs veh, MAT2A / RFU, CCT5 / Fold change vs veh, CCT5 / RFU, WDR92 / Fold change vs veh, WDR92 / RFU, CUX1 / Fold change vs veh, CUX1 / RFU, TTC7A / Fold change vs veh, TTC7A / RFU, TMEM135 / Fold change vs veh, TMEM135 / RFU, DEPTOR / Fold change vs veh, DEPTOR / RFU, CPM / Fold change vs veh, CPM / RFU, DNAJB6 / Fold change vs veh, DNAJB6 / RFU, CACNA2D3 / Fold change vs veh, CACNA2D3 / RFU, DTX4 / Fold change vs veh, DTX4 / RFU, TFCP2 / Fold change vs veh, TFCP2 / RFU, GMCL1 /// GMCL1P1 / Fold change vs veh, GMCL1 /// GMCL1P1 / RFU, AEBP2 / Fold change vs veh, AEBP2 / RFU, SNHG1 /// SNORD22 /// SNORD25 /// SNORD26 /// SNORD27 /// SNORD28 /// SNORD29 /// SNORD31 / Fold change vs veh, SNHG1 /// SNORD22 /// SNORD25 /// SNORD26 /// SNORD27 /// SNORD28 /// SNORD29 /// SNORD31 / Fold change (Aza/veh), C12orf56 (ProbeSet 11735607_a_at) / Fold change (ACY-1035/veh), C12orf56 (ProbeSet 11735607_a_at) / Fold change (Aza/veh), FGFR1OP (ProbeSet 11751329_s_at) / Fold change (ACY-1035/veh), FGFR1OP (ProbeSet 11751329_s_at) / Fold change (Aza/veh), VPS36 (ProbeSet 11739960_a_at) / Fold change (ACY-1035/veh), VPS36 (ProbeSet 11739960_a_at) / RFU SYPL1 (11715823_x_at) / Fold change /veh SYPL1 (11715823_x_at) / RFU IGFBP7 (11715501_s_at) / Fold change /veh IGFBP7 (11715501_s_at) / RFU REEP3 (11722064_at) / Fold change /veh REEP3 (11722064_at) / RFU IGLL1 (11728026_x_at) / Fold change /veh IGLL1 (11728026_x_at): dose or concentration left out as unconfirmed
Conditions: ProbeSet 11734937_a_at; LIST B

Nc1ncn([C@@H]2O[C@H](CO)[C@@H](O)[C@H]2O)c(=O)n1 [azacitidine]
Fold change vs veh, CNOT2: 0.93
